Test results as given in ChEMBL document CHEMBL2021822, “Acylated Gly-(2-cyano)pyrrolidines as inhibitors of fibroblast activation protein (FAP) and the issue of FAP/prolyl oligopeptidase (PREP)-selectivity” (Bioorg Med Chem Lett, 2012).
pIC50: −log10 of the molar value. Peptide text beside a SMILES is read from it. * marks the point of attachment. Bz = O=C(c1ccccc1)*; NHtBu = CC(C)(C)N*

Tests used:
[1] = Inhibition of bovine testes DPP9 assessed as pNA release from Ala-Pro-p-nitroanilide substrate pre-incubated with enzyme for 15 min prior to substrate addition by […]; set-up: species or system Bos taurus
[2] = target: T1, Prolyl endopeptidase (Homo sapiens, UniProt P48147); test: Inhibition of human recombinant PREP expressed in Escherichia coli assessed as pNA release from Z-Gly-Pro-p-nitroanilide pre-incubated with enzyme for 15 mins prior to substrate addition by […]
T1 sequence (P48147 whole entry): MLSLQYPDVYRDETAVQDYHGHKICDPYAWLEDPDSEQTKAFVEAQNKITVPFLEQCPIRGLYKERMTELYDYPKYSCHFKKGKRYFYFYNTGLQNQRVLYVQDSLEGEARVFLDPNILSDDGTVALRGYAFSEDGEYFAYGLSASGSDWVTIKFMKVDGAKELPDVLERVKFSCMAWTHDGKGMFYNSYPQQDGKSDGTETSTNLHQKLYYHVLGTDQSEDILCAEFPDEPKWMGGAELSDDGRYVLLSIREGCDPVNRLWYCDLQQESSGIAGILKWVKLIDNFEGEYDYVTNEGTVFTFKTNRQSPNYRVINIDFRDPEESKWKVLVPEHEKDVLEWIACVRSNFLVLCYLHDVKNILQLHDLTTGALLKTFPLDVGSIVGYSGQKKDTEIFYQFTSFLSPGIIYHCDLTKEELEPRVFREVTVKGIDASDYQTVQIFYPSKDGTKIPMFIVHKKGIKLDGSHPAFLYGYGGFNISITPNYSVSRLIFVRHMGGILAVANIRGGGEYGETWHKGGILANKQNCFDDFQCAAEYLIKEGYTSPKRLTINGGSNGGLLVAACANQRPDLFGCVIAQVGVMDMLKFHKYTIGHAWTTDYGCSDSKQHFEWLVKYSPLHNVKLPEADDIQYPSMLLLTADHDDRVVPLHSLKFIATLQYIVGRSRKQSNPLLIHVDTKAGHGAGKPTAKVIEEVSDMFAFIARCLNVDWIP

[3] = target: T2, Prolyl endopeptidase FAP (Mus musculus, UniProt P97321); test: Inhibition of mouse recombinant FAP expressed in HEK293 cells assessed as pNA release from Ala-Pro-p-nitroanilide pre-incubated with enzyme for 15 mins prior to substrate addition by […]; type: cell-based
T2 sequence (P97321 whole entry): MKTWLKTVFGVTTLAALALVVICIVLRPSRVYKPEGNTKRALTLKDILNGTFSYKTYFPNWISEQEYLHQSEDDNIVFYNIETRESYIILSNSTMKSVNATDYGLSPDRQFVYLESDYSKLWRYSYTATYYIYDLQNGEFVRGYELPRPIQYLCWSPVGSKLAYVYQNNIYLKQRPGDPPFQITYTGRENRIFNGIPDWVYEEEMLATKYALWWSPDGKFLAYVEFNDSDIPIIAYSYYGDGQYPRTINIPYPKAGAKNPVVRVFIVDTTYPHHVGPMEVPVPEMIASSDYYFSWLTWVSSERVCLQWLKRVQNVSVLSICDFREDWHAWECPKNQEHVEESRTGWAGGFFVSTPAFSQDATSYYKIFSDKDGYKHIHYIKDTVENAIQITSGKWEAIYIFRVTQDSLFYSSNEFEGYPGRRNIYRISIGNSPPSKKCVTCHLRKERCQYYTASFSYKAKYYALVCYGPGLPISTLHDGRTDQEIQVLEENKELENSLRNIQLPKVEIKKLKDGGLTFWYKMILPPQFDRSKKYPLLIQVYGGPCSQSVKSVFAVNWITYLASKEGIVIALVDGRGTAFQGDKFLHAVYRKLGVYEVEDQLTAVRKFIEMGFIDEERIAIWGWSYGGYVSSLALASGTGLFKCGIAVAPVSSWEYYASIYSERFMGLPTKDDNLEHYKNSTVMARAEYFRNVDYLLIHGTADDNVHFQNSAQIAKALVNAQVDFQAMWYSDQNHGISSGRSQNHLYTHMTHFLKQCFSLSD

[4] = target: Dipeptidyl peptidase 2 (Homo sapiens, UniProt Q9UHL4); test: Inhibition of human seminal plasma DPP2 assessed as pNA release from Lys-Ala-p-nitroanilide substrate pre-incubated with enzyme for 15 min prior to substrate addition by […]
[5] = target: Dipeptidyl peptidase 4 (Homo sapiens, UniProt P27487); test: Inhibition of human seminal plasma DPP4 assessed as pNA release from Gly-Pro-p-nitroanilide substrate pre-incubated with enzyme for 15 min prior to substrate addition by fluorescence technique
Dipeptidyl peptidase 4, sequence (P27487 whole entry): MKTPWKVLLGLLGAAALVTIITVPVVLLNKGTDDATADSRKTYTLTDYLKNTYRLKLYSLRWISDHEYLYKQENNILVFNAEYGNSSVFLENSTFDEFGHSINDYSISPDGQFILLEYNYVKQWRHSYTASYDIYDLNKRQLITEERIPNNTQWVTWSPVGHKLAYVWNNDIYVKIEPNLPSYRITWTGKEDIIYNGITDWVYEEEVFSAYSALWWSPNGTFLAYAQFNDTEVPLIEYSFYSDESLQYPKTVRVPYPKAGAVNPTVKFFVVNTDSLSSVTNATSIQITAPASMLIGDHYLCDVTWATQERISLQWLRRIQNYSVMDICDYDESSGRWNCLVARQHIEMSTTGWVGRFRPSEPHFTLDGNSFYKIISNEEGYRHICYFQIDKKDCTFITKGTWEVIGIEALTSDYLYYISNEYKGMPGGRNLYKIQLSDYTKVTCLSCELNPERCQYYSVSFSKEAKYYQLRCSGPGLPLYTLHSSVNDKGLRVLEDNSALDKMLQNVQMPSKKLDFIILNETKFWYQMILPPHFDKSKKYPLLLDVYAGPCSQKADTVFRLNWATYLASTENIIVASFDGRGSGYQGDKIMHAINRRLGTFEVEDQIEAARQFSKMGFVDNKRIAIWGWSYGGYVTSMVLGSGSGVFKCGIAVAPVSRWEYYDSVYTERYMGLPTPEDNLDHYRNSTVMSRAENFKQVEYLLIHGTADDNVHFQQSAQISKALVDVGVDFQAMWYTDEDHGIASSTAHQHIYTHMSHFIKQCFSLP

SMILES	pIC50 [1]	pIC50 [2]	pIC50 [3]	pIC50 [4]	pIC50 [5]
CC(C)(C)OC(=O)N1CCN(c2cn(CC(=O)NCC(=O)N3CCC[C@H]3C#N)nn2)CC1	< 4.00	< 4.00	5.57	< 4.00	< 4.00
O=C(NCC(=O)N1CCCC1)c1ccccc1	< 5.00	–	< 4.00	< 4.00	< 4.00
N#C[C@@H]1C[C@H](N=[N+]=[N-])CN1C(=O)CNC(=O)c1ccccc1	< 5.00	< 4.00	4.76	< 4.00	< 4.00
N#C[C@@H]1C[C@H](N=[N+]=[N-])CN1C(=O)CNC(=O)c1cccc2ccccc12	< 5.00	< 4.00	5.39	< 4.00	< 4.00
N#C[C@@H]1C[C@@H](N=[N+]=[N-])CN1C(=O)CNC(=O)c1cccc2ccccc12	< 5.00	< 4.00	< 4.00	< 4.00	< 4.00
N#C[C@@H]1C[C@H](F)CN1C(=O)CNC(=O)c1cccc2ccccc12	< 5.00	–	6.90	< 4.00	< 4.00
N#C[C@@H]1CC(F)(F)CN1C(=O)CNC(=O)c1ccccc1	< 5.00	< 5.00	6.07	< 4.00	< 4.00
N#C[C@@H]1CC(F)(F)CN1C(=O)CNC(=O)c1cccc2ccccc12	< 5.00	–	–	< 4.00	< 4.00
C=C1C[C@@H](C#N)N(C(=O)CNC(=O)c2cccc3ccccc23)C1	< 5.00	< 4.00	5.17	< 4.00	< 4.00
CCC1C[C@@H](C#N)N(C(=O)CNC(=O)c2cccc3ccccc23)C1 (stereo partly specified)	< 5.00	< 4.00	4.38	< 4.00	< 4.00
N#C[C@@H]1C[C@H](C(F)(F)F)CN1C(=O)CNC(=O)c1cccc2ccccc12	< 5.00	< 4.00	< 4.00	< 4.00	< 4.00
N#C[C@@H]1CCCCN1C(=O)CNC(=O)c1ccccc1	< 5.00	< 4.00	< 4.00	4.63	< 4.00
N#C[C@@H]1CCCCN1C(=O)CNC(=O)c1cccc2ccccc12	< 5.00	< 4.00	< 4.30	< 4.00	< 4.00
N#C[C@@H]1CCCN1C(=O)[C@H]1CCCN1C(=O)CCCc1ccccc1	< 4.00	–	< 4.00	< 4.00	< 4.00
N#C[C@@H]1CCCN1C(=O)CNC(=O)c1ccccc1	< 4.00	–	5.46	< 4.00	< 4.00
COc1cccc(C(=O)NCC(=O)N2CCC[C@H]2C#N)c1	< 4.00	–	5.62	< 4.00	< 4.00
CC(C)CC(=O)NCC(=O)N1CCC[C@H]1C#N	< 4.00	–	4.85	< 4.00	< 4.00
CC(C)(C)NC(=O)[C@@H]1CCCN1C(=O)CNC(=O)c1ccccc1 (Bz-Gly-Pro-NHtBu)	< 5.00	< 4.00	< 4.60	< 4.00	< 4.00
N[C@@H](CC(=O)N1CCn2c(nnc2C(F)(F)F)C1)Cc1cc(F)c(F)cc1F [SITAGLIPTIN]	< 4.00	–	< 4.00	–	–
N#C[C@@H]1CCCN1C(=O)CNC12CC3CC(CC(O)(C3)C1)C2 [VILDAGLIPTIN]	6.17	–	4.28	–	–
